In brackets after ≈: the same amount, converted by molar mass.
Columns and labels:
[1] = test system: endothelial cells (HUVEC); test: Cytotoxicity, MTT assay; assay type: cell-based, human; conditions: Homo sapiens, HUVEC, 24 h, 37 °C, 800 to 1.6 μg/mL, 50% cell viability
Procedure: Cytotoxicity assay. Cytotoxicity tests were performed on NIH 3T3 fibroblast cells, endothelial cells (HUVEC), macrophage (RAW264.7), liver cells (LO2), kidney cells (COS7) and enterocyte (NCM-460) using MTT assay. Cells were cultured in DMEM supplemented with 10% FBS, 5% penicillin, 2 mM L-glutamine and incubated at 37 °C in 5% CO 2. Cells were harvested and seeded onto 96-well plates at a density of 1.0 × 10^4 cells per well and incubated for 24 h. On each plate, wells containing growth medium only and cells in growth medium without any antifungal agent were used as the negative and positive control, […]
concentrations ranging from 800 to 1.6 μg/mL. Medium in each cell-containing well was replaced with 100 μL of the corresponding polymer solution, and the plates were incubated at 37 °C for 24 h. Then, the solution in each well was switched to 100 µL MTT solution (1 mg/mL) and the plate was incubated in the dark at 37 °C for 4 h. […] Then 85 µL of the supernatant from each well was transferred to the corresponding well in a new plate, followed by absorbance measurement at 570 nm on a plate reader. […] The percentage of cell viability in each test well, relative to the positive control (which defines 100%) w as calculated from [% fibroblast growth = (A polymer – Ablank)/(Acontrol – A blank) × 100]. […]

A. Baumannii ATCC 747 = test: Antibacterial MIC test; assay type: cell-based; conditions: 1.0 × 10^5 CFU/mL in MH medium
Source text: (§1) aforementioned antifungal assay. Gram-positive bacteria ( S. aureus ATCC 6538, S.

B. subtilis BR151 = test: Antibacterial MIC test; assay type: cell-based; conditions: 1.0 × 10^5 CFU/mL in MH medium
Source text: as §1

E. coli ATCC 25922 = test: Antibacterial MIC test; assay type: cell-based; conditions: 1.0 × 10^5 CFU/mL in MH medium
Source text: as §1

[2] = test system: K. pneumoniae ATCC 700603; test: Antibacterial MIC test; assay type: cell-based; conditions: 1.0 × 10^5 CFU/mL in MH medium
Source text: as §1

S. aureus ATCC 6538 = test: Antibacterial MIC test; assay type: cell-based; conditions: 1.0 × 10^5 CFU/mL in MH medium
Source text: as §1

[3] = test system: S. epidermidis ATCC 49134; test: Antibacterial MIC test; assay type: cell-based; conditions: 1.0 × 10^5 CFU/mL in MH medium
Source text: as §1

[4] = test system: Gram‐positive and Gram‐negative bacteria; test: Antibacterial MIC test, summary over six bacteria; assay type: cell-based; conditions: S. aureus, S. epidermidis, B. subtilis, E. coli, A. baumannii, K. pneumoniae
Source text: as §1

C. albicans (K1 strain) = test: Intracellular ROS detection (DCFH fluorescence); assay type: cell-based, Candida albicans; conditions: DCF fluorescence, positive control 40 mM H2O2; rises with time and PDAP20 concentration
Procedure: Energy depletion analysis. For energy depletion experiments, cell suspension of C. albicans (K1 strain) at 3.0 × 10^6 CFU/mL was pretreated with RPMI containing 5 mM NaN 3 for 1 h. For antifungal efficiency assay, a fresh cell suspension pretreated or non-pretreated with NaN 3 were incubated with 50 μg/mL PDAP 20 or without an antifungal agent (as energy depletion control) for 24 h. The fresh cell suspension without antifungal agents before and after incubation with NaN 3 for 24 h were used as the controls, respectively. The suspensions were diluted and plated on YPD agar. The plates were incubated at 30 °C for 24 h and colony amounts were counted. The cell viability after incubation at 4 °C with 50 μg/mL PDAP 20 or without an antifungal agent (as positive control) was measured using the same method. […]
For flow cytometry experiment, a fresh cell suspension pretreated or non-pretreated with NaN 3 was incubated with 50 μg/mL CPM-PDAP 20 for 1 h and 2 h, respectively. Fungal cells were washed by PBS to remove polymers, and 5.0 × 10^4 cells were counted and anaysized. The polymer uptake was calculated by flow cytometry (Backman). Furthermore, cell suspensions were incubated with 10 μg/mL PI for 10 min for calculated PI uptake. […]
DNA fragmentation assay. Apoptosis induced DNA fragments in C. albicans cells were analyzed using the TdT-mediated dUTP Nick-End Labeling (TUNEL) method. […]

| Molecule | IC50 [1] | MIC A. baumannii (A. Baumannii ATCC 747) | MIC B. subtilis (B. subtilis BR151) | MIC E. coli (E. coli ATCC 25922) | MIC K. pneumoniae [2] | MIC S. aureus (S. aureus ATCC 6538) | MIC S. epidermidis [3] | MIC against the six bacteria (summary) [4] | Intracellular ROS level (C. albicans (K1 strain)) |
| --- | --- | --- | --- | --- | --- | --- | --- | --- | --- |
| C[C@@H]1[C@H](O)[C@@H](C)/C=C/C=C/C=C/C=C/C=C/C=C/C=C/[C@H](O[C@@H]2O[C@H](C)[C@@H](O)[C@H](N)[C@@H]2O)C[C@@H]2O[C@](O)(C[C@@H](O)C[C@@H](O)[C@H](O)CC[C@@H](O)C[C@@H](O)CC(=O)O[C@H]1C)C[C@H](O)[C@H]2C(=O)O [AmpB, amphotericin B] | 8.8 µg/mL (≈ 9.52 µM) | – | – | – | – | – | – | – | – |
| poly(DL‐diaminopropionic acid) [PDAP20] | – | > 200 µg/mL | 50 µg/mL | 200 µg/mL | > 200 µg/mL | > 200 µg/mL | 200 µg/mL | greater than 50 µg mL^−1 | higher than that of the hydrogen peroxide‐treated fungal cells |
